Measurements reported in publication PMC5417072 (Anticancer research, 2016).
pIC50: −log10 of the molar value.

Target: SIRT2 (sirtuin-2) (Homo sapiens, UniProt Q8IXJ6)
Test: in vitro enzymatic assay
Type: biochemical

Sequence of SIRT2 (sirtuin-2) (Q8IXJ6 2-389): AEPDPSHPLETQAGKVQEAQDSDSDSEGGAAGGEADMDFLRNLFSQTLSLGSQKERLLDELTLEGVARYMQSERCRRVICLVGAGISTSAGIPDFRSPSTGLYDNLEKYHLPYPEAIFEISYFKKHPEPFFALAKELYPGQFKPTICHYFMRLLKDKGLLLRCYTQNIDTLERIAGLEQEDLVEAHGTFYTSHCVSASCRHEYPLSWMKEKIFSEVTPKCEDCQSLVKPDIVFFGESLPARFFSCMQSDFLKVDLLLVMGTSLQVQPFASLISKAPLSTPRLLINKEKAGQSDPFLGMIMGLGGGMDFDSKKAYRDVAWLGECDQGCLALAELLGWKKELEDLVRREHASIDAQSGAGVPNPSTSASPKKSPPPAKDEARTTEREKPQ

## COC(=O)[C@H](CCC(=O)Nc1cccc2c1ccn2Cc1cccc(C(N)=O)c1)NC(=O)OCc1ccccc1 [compound 6, (S)-Methyl 2-(((benzyloxy)carbonyl)amino)-5-((1-(3-carbamo-ylbenzyl)-1H-indol-4-yl)amino)-5-oxopentanoate]
  pIC50: 4.48
